Values after ≈ are worked out from the molar mass of the structure shown. Some results are limits rather than exact numbers.

Inhibition and MIC data for two compounds are collected here from paper PMC7399337, “Biological Properties and Absolute Configuration of Flavanones From Calceolaria thyrsiflora Graham” (Frontiers in Pharmacology, 2020).

In one assay the test system is P. cinnamomi. The assay is described as follows: In vitro fungicidal activity, radial mycelial growth test on PDA. Format: cell-based, Phytophtora cinnamomi. The conditions noted are these: Phytophthora cinnamomi, 120 h, read-out: Percentage of inhibition on in vitro mycelial growth of P. cinnamomi; for inhibition at 50 µg/mL: 50 mg/L; for inhibition at 150 µg/mL: 150 mg/L; for inhibition at 250 µg/mL: 250 mg/L. As for the experimental part:
A strain of Botrytis cinerea isolated from a naturally infected grape (Vitis vinifera) was used in all experiments. Isolated Phytophtora cinnamomi was provided by the Agricultural and Livestock Service of Valparaíso. Both strains were maintained on a potato dextrose agar (PDA) medium (DIFCO, Detroit, MI) at 4°C. The inoculum of both pathogens was grown on PDA and incubates in dark at 23°C for 5 days in the case of B. cinerea and 8 days for P. cinnamomi.
The fungicidal activity of flavanones, extracts, the negative control (C-) composed of solvent (1% ethanol), and the positive control (C+, commercial fungicide Captan® and metalaxil® for B. cinerea and P. cinnamomi, respectively) were assessed using the radial growth test technique on PDA medium as described ([Taborga et al., 2015]). All test samples were dissolved in ethanol (1%) and water, to obtain final concentrations of 50, 150, and 250 mg/L in the PDA medium. A plug (4 mm) of PDA medium with five-day-old mycelium colonies of the pathogen was placed at the center of a Petri dish with PDA medium with or without studied test samples and were incubated at 23°C in dark for 72 h (B. cinerea) and 120 h (P. cinnamomi). After incubation, the diameters of colonies were measured and the inhibition percentage was calculated as the average of three replicas compared to C-.

The next assay concerns the target T1, 15-sLOX (Glycine max, UniProt P08170).
T1 construct: purchased Cayman Chemical Item No. 60712
T1 sequence (P08170 1-839): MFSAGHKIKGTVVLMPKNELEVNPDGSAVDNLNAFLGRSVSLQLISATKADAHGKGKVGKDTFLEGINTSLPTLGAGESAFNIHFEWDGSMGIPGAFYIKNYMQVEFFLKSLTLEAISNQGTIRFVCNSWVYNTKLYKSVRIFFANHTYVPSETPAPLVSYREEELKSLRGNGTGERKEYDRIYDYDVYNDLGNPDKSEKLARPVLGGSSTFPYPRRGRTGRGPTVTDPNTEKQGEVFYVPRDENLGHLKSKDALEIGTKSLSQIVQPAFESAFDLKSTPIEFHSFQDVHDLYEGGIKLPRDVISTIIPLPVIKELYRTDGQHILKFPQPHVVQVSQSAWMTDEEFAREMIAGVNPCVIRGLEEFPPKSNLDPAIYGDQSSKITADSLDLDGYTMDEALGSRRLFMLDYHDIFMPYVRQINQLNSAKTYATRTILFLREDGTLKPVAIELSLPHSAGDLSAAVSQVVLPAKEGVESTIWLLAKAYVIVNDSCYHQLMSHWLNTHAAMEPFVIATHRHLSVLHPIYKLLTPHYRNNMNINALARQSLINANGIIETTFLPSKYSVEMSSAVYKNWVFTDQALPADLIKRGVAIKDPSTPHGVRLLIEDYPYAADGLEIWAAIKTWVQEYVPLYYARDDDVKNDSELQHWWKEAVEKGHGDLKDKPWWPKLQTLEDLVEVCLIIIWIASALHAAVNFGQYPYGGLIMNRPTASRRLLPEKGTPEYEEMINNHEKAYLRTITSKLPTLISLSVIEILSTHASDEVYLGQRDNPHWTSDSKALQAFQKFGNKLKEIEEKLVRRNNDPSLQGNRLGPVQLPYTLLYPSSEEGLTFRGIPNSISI
The assay can be described thus: In vitro 15-sLOX enzyme assay (absorbance at 234 nm). Type of assay: biochemical. The settings on record: Flavanones at 10 µM (table footnote); method: 5 µg/ml. The procedure: The activity of 15-sLOX (Cayman Chemical Item No. 60712) was determined following the formation of reaction products at 234 nm (ϵ = 25,000 M^-1 cm^-1) in a Perkin-Elmer Lambda 25 UV/Vis spectrophotometer. All reactions were performed at a final volume of 2 ml and were constantly stirred using a magnetic bar at room temperature. The reaction medium used contained 25 mM HEPES buffer (pH 7.4), Triton X-100 0.01%, and the arachidonic acid (AA) substrate at a 10 µM concentration determine preliminary percent inhibition (%I). AA concentration was determined quantitatively by allowing the enzymatic reaction to go to completion. The reaction was carried out by adding the inhibitor dissolved in DMSO (5 µg/ml in the reaction medium) to the bucket with the substrate buffer, and finally the enzyme was added. Assays were performed in duplicate on three different days. GraphPad Prism Demo V.7 performed the graphics for IC50 and kinetics studies ([GraphPad-Software-Inc., 2017]).

The next assay has as its system S. aureus MRSA 97-7. The assay can be described thus: Antibacterial MIC, CLSI microdilution, human pathogens. Format: cell-based. The conditions noted are these: Staphylococcus aureus, 18 h, read-out: Minimum inhibitory concentration (MIC). As for the experimental part: (§1) Briefly, stock solutions (5 mg/ml) of compounds in DMSO were diluted in Mueller-Hinton broth (MHB) to the different two-fold assay concentrations. […] The obtained solution was added to MHB and serially two-fold diluted in a 96-well microplate. A sample of 100 μL of inoculum 1.5 × 10^6 colony forming unit (CFU) ml^-1 in MHB was added and then incubated at 37°C for 18 h. The assay was repeated three times. Wells containing MHB, 100 μL of inoculum, and DMSO served as negative controls.
(In general: Dilution methods test growth across graded concentrations, often in twofold steps.)

Another assay concerns S. aureus MRSA 622-4. The description is as above. Format: cell-based. The conditions noted are these: Staphylococcus aureus, 18 h, read-out: Minimum inhibitory concentration (MIC). As for the experimental part:
as §1

The next assay has as its system E. coli ATCC25922. The description is as above. Format: cell-based. The conditions noted are these: Escherichia coli, 18 h, read-out: Minimum inhibitory concentration (MIC). As for the experimental part: as §1
In another assay the test system is S. aureus NTCC8325-4. The description is as above. The settings on record: Staphylococcus aureus, NTCC83254, 18 h, read-out: Minimum inhibitory concentration (MIC). Type of assay: cell-based. The procedure:
as §1

The subject of the next assay is E. coli 33.1. The assay is described as above. Type of assay: cell-based. The conditions noted are these: Escherichia coli; E. coli 33.1 (multi-resistant); 18 h; read-out: Minimum inhibitory concentration (MIC). As for the experimental part: as §1

Regarding `COc1cc(O)c2c(c1)O[C@H](c1ccc(O)c(O)c1)CC2=O` [Compound 2, (-)-(2S)-5,3’,4’-trihydroxy-7-methoxyflavanone], the inhibition at 50 µg/mL in the assay on P. cinnamomi worked out at 0%. Moreover, the inhibition at 150 µg/mL with P. cinnamomi amounted to 33 ± 5.8%. In the assay with P. cinnamomi, the inhibition at 250 µg/mL came to 42 ± 5.3%. Moreover, on 15-sLOX, at 10 µM the inhibition was 26 ± 3.96%. Further, the MIC in the assay with S. aureus MRSA 97-7 is 50 µg/mL (≈ 165 µM); in the assay with S. aureus MRSA 622-4, over 100 µg/mL; in the assay on E. coli ATCC25922, over 100 µg/mL; with S. aureus NTCC8325-4 it was over 100 µg/mL; with E. coli 33.1 it was over 100 µg/mL.
Regarding `COc1cc(O)c2c(c1)O[C@H](c1ccc(O)cc1)CC2=O` [Compound 1, (-)-(2S)-5,4’-dihydroxy-7-methoxyflavanone], in the assay on P. cinnamomi, the inhibition at 50 µg/mL is 0%. Further, in the assay on P. cinnamomi, the inhibition at 150 µg/mL was 0%. The inhibition at 250 µg/mL with P. cinnamomi worked out at 0%. The inhibition at 10 µM against 15-sLOX came out at 7 ± 3.12%. The MIC in the assay on S. aureus MRSA 97-7, in the assay with S. aureus MRSA 622-4, in the assay with E. coli ATCC25922, in the assay with S. aureus NTCC8325-4 and in the assay with E. coli 33.1 was over 100 µg/mL in each case.

Usually inhibition stands for the relative decrease from the control value, in per cent.
